Measured values from patent publication US8114895B2, “Use of bipyridine compound ‘Caerulomycin A’ derivatives and analogs thereof as immunosuppressive agents” (Council of Science and Industrial Research, priority 2005, dated 2012).
Like-named read-outs stand apart in the source and are kept apart here.

Experiments:
Th1 cells (3DO.54.8) = assay: Proliferation of Th1 cells; assay type: cell-based; conditions: anti-CD3 Ab 10 μg/ml; 24 h
Experimental: Th1 cells (1×10^4 cells/well) were stimulated with anti-CD3 Ab (10 μg/ml) and different doses Caerulomycin A. After 24 h, [^3H]-thymidine was added, and its incorporation was measured 8 h later.

antigen specific T cells = assay: In vivo proliferation of antigen specific T cells (OVA-primed mice injected with drug, splenocytes cultured ex vivo); parameters: species or system BALB/c mice; conditions: for proliferation of cells from antigen-primed animals injected with drug versus animals not administered drug: 25-100 μg/mice/day i.p. for 7 days
Experimental: FIG. 1: Different groups, each comprising five animals were immunized with OVA, followed by CaeA administration daily for 7 days before mice were sacrificed. Splenocytes (2×10^5 cells/well) were isolated and cultured in vitro with 100 μg/ml OVA and varied doses of CaeA. After 72 h, [^3H]-thymidine was added, and its incorporation was measured 16 h later.
FIG. 2: In another set of experiment, three different groups were immunized with OVA followed by administration of CaeA (25 μg/mice) in one of the group and Alcohol (vehicle control) in another group, daily for 7 days before mice were sacrificed. Splenocytes (2×10^5 cells/well) were isolated and cultured in vitro alone or with OVA 100 and 200 μg/ml (1.2). Each point represents the mean±SEM of triplicate determinations from one of the three representative experiments.
OVA (2 mg/ml) was dissolved in PBS (0.01 M, pH 7.2) and emulsified in Freund's complete adjuvant (FCA). Emulsion (100 μl) was then injected intraperitoneally (i.p.) in 7 groups, comprising 5 BALB/c mice in each set. Four groups of animals were injected intraperitoneally daily with Caerulomycin A (25, 50, 75, 100 μg/100 μl/mice). The control groups were immunized intraperitoneally with 100 μl each of PBS and ethanol-PBS. After seven days, mice were sacrificed and splenocytes were isolated and pooled for in vitro proliferation.
Ovalbumin (3 mg/ml) was dissolved in PBS (pH 7.2) and emulsified in Freund's complete adjuvant (FCA). Emulsion (100 μl) was then injected intraperitoneally (i.p.) in different groups, comprising 5 BALB/c mice in each set. Four groups of animals were injected intraperitoneally daily with caerulomycin A (25, 50, 75, 100 μg/100 μl/mice). The control groups were immunized intraperitoneally with ethanol-PBS.
After seven days, mice were sacrificed and splenocytes were pooled and used for proliferation assays. Splenocytes (2×10^5 cells/well) were cultured with OVA (100 μg/ml) in 200 μl RPMI/FCS-10% medium and with various concentrations of caerulomycin A (0.1-0.0003 μg/ml). The control cultures consisting of splenocytes incubated with different concentrations of caerulomycin A (no OVA), OVA and medium were also kept. After 72 h, the cultures were pulsed with 1 μCi of [^3H]-thymidine and harvested 14 h later. Radioactivity incorporated was measured by liquid scintillation counting and data are expressed as mean counts per minute (cpm).
The mice were administered with different doses of caerulomycin A for 7 days (FIG. 1). The animals were sacrificed and splenocytes were cultured in vitro with antigen and different concentrations of caerulomycin A (0.00625-0.10 μg/ml).

B cells = assay: Secretion of antibodies
D10G4.1 Th2 clones = assay: IL-4 release by Th2 clones; assay type: cell-based; conditions: stimulated with anti-CD3 Ab (0.1 and 0.5 μg/ml) or conalbumin pulsed APC
Th2 clones [1] = assay: Proliferation of Th2 clones; assay type: cell-based; conditions: stimulated with anti-CD3 Ab or conalbumin pulsed γ-irradiated splenocytes; Caerulomycin A 0.00625-0.1 μg/ml
Experimental: The proliferation of Th2 clones was measured using cells harvested on 7-9 days after stimulation with antigen pulsed splenocytes. The dead cells were removed by ficoll-histopaque. Th2 clones (5×10^4 cells/well) were either stimulated with anti-CD3 Ab (0.1 μg/ml and 0.5 μg/ml) or incubated with γ-irradiated (3000 R) syngeneic splenocytes (5×10^5 cells/well) and conalbumin (100 μg/ml) in 200 μl RPMI/FCS-10% medium and with various concentrations of Caerulomycin A (0.00625-0.1 μg/ml). The control cultures consisting of Th2 cells incubated with conalbumin alone and γ-irradiated syngeneic splenocytes (no antigen) were also kept. The cultures were kept in a flat bottom 96 well microtitre plate and the cells were incubated at 37° C. and 7% CO2. After 48 h, the cultures were pulsed with 0.5 μCi of [^3H]-thymidine and harvested 16 h later. Radioactivity incorporated was measured by liquid scintillation counting and data are expressed as mean counts per minute (cpm).

Th2 clones [2] = assay: Kinetics of the effect on the proliferation of Th2 clones; assay type: cell-based; conditions: anti-CD3 Ab 0.5 μg/ml, read-out: inhibitory effect on Th2 cells
Experimental: Th2 clones (5×10^4/well) were stimulated with anti-CD3 Ab (0.5 μg/ml). Caerulomycin A (0.05 μg/ml) was added either at the initiation of the cultures (time 0) or at various time points (4 h-48 h) After 48 h of the cultures, [^3H]-thymidine was added, and its incorporation was measured 12 h later.

COc1cc(/C=N/O)nc(-c2ccccn2)c1 [Caerulomycin A, (E)-4-methoxy-2,2′-bipyridine-6-carbaldehyde oxime]
proliferation of Th1 cells (Th1 cells (3DO.54.8)): inhibited the proliferation | growth of cells from injected mice versus PBS-ethanol animals (antigen specific T cells; 25 μg/mice/day for 7 days, FIG. 2): significant level of retardation in the growth | proliferation of cells from antigen-primed animals injected with drug versus animals not administered drug (antigen specific T cells; FIG. 1): substantial inhibition | proliferation of cells from antigen-primed animals injected with drug versus animals not administered drug (antigen specific T cells; FIG. 1, listed as caerulomycin A): substantial inhibition in the proliferation | proliferation of cells from treated animals incubated in vitro with drug (antigen specific T cells; cells incubated with 0.10 μg/ml of caerulomycin A, FIG. 1): Nearly complete inhibition | optimum dosage required in vivo (antigen specific T cells; mouse, in vivo): 5.0 mg/kg/body wt | secretion of IgG1 type of antibodies (B cells): inhibited the secretion | secretion of IgG2a type of antibodies (B cells): inhibited the secretion | release of IL-4 (D10G4.1 Th2 clones): suppressed the release | proliferation of Th2 clones (Th2 clones [1]): substantially restricted the proliferation | inhibition at 0.05 µg/mL (Th2 clones [2]; 0.05 μg/ml added after 42 h): 56% | inhibition at 0.05 µg/mL (Th2 clones [2]; 0.05 μg/ml added before 16 h of the initiation of the cultures): 77 to 90%
